# Values of other authors, collected in US11590077B2, “Fulvestrant formulations and methods of their use” (EAGLE PHARMACEUTICALS, INC., priority 2017, dated 2023).
# Conditions: background statement
compound,measurement,value
"C[C@]12CC[C@@H]3c4ccc(O)cc4C[C@@H](CCCCCCCCC[S+]([O-])CCCC(F)(F)C(F)(F)F)[C@H]3[C@@H]1CC[C@@H]2O (stereo partly shown) [Fulvestrant, 7-(9-(4,4,5,5,5-pentafluoropentylsulfinyl)nonyl) estra-1,3,5(10)-triene-3,17-diol]",aqueous solubility,extremely low
